# Data from paper PMC6736568, “Discovery of Novel Anti-cryptosporidial Activities From Natural Products by in vitro High-Throughput Phenotypic Screening” (Frontiers in Microbiology, 2019).
# Structures can show the parent of a compound that is named as a salt. Where two headings read alike, the source gives them in different places.
# Key:
# [1] = in vitro
# [2] = system: HCT-8 host cells (Hs18S)
# [3] = system: Cryptosporidium parvum; assay: qRT-PCR assay of the growth of C. parvum in vitro in HCT-8 host cells (primary and secondary screening, EC50); type: cell-based; settings: Cryptosporidium parvum, HCT-8; for inhibition at 10 µM: primary screening at 10 uM, read-out: Inhibition (%); for inhibition at 3.3 µM: secondary screening at 3.3 uM, read-out: % Inhibition (3.3 uM)
# [4] = primary screening at 10 uM, treated vs control
Structure (SMILES),"cytotoxicity at 41 h, 10 µM ([1]; human) [%]","Hs18S ΔCT ([2]; human, 41 h, 10 μM)",inhibition at 10 µM [3] [%],cytotoxicity at 10 µM [1] [%],"Hs18S ΔCT [2, 4]",inhibition at 3.3 µM [3] [%],"cytotoxicity at 41 h, 10 µM [1] [%]"
NC(=O)NC1NC(=O)NC1=O (stereo not drawn) [ALLANTOIN],-16.1,-0.22,8.13,,,,
COC(=O)c1c(C)c2c(c(C)c1O)OC(=O)c1c(C)c(Cl)c(O)c(Cl)c1O2 [LEOIDIN],24.9,0.41,16.7,,,,
COc1ccc(C(C)=O)c(OC)c1 [PEONOL METHYL ETHER],-24.3,-0.31,18.9,,,,
CC[C@@]1(O)C[C@H](O)c2c(cc3c(c2O)C(=O)c2c(O)ccc(O)c2C3=O)[C@H]1C(=O)OC [RUTILANTINONE],,,92,-45.2,-0.54,-3,
CC(C)=CCc1c2c(c3occ(-c4ccc(O)cc4)c(=O)c3c1O)C=CC(C)(C)O2 [OSAJIN],-108,-1.06,-1.77,,,,
O=c1c(O)c(-c2ccc(O)cc2O)oc2cc(O)cc(O)c12 [MORIN],,,32.3,-15.6,-0.21,,
O=C(O)CCCC[C@@H]1SC[C@@H]2NC(=O)N[C@@H]21 [BIOTIN],,,11.9,-18.4,-0.24,,
NCC(=O)c1ccccc1 [PHENACYLAMINE HYDROCHLORIDE],57,1.22,9.11,,,,
C=CC(C1=CC(=O)C=CC1=O)c1ccccc1 (stereo not drawn) [DALBERGIONE],20.4,0.33,32.8,,,,
CC(=O)O[C@@H]1[C@H]2CC[C@H]3[C@@](C)(O)[C@@H]4C[C@H](O)C(C)(C)[C@@]4(O)[C@H](O)C[C@@]13C[C@@]2(C)O [GR[…]],,,3.95,-2.4,-0.03,,
COC(=O)C[C@H]1C(C)(C)[C@@H](OC(C)=O)[C@@H]2CC3C4CC(=O)O[C@@H](c5ccoc5)[C@]4(C)CCC3[C@@]1(C)C2=O (stereo partly drawn) [DIHYDROFISSINOLIDE],5.3,0.08,4.5,,,,
O=C(O)/C=C/c1ccc(O)c(O)c1 [CAFFEIC ACID],-26.2,-0.34,18.9,,,,
C=C(C)[C@@H]1CC=C(CO)CC1 [PERILLYL ALCOHOL],-27.4,-0.35,29.5,,,,
CO[C@H]1[C@H](O)[C@@H](O)[C@H](O)[C@H](O)[C@H]1O [QUEBRACHITOL],-11.4,-0.16,-39,,,,
COc1cc2c(c(OC)c1OC)-c1ccc(=O)c(O)cc1[C@@H](NC(C)=O)CC2 [COLCHICEINE],,,13.7,-34.9,-0.43,,
C[C@]12CC[C@@H]3c4ccc(O)cc4CC[C@H]3[C@@H]1CC[C@@H]2O [ESTRADIOL],-13.8,-0.19,22,,,,
O=C(O)/C=C/c1ccccc1 [CINNAMIC ACID],,,2.86,-31,-0.39,,
Cc1cc(O)c(C=O)c2c1C(=O)Oc1c(COC(=O)/C=C/C(=O)O)c(O)c(C(=O)O)c(C)c1O2 [FUMARPROTOCETRARIC ACID],6.9,0.10,-5.48,,,,
C=CCc1ccc2c(c1)OCO2 [SAFROLE],,,76.2,-35.3,-0.44,8,
CCCCCC(=O)Cc1cc(O)cc(O)c1C(=O)Oc1cc(CC(=O)CCCCC)c(C(=O)O)c(OC)c1 [ARTHONIOIC ACID],1.1,0.02,-25.4,,,,

Structure (SMILES),"cytotoxicity at 41 h, 10 µM ([1]; human) [%]","Hs18S ΔCT ([2]; human, 41 h, 10 μM)",inhibition at 10 µM [3] [%],cytotoxicity at 10 µM [1] [%],"Hs18S ΔCT [2, 4]",inhibition at 3.3 µM [3] [%],"cytotoxicity at 41 h, 10 µM [1] [%]"
CC(C)CCC[C@@H](C)[C@H]1CC[C@H]2[C@@H]3CC[C@H]4CC(=O)CC[C@]4(C)[C@H]3CC[C@]12C [CHOLESTAN-3-ONE],,,-36.7,,-0.48,,-39.9
C=C1CC[C@H](O)C/C1=C/C=C1\CCC[C@]2(C)[C@@H]([C@H](C)CCCC(C)C)CC[C@@H]12 [CHOLECALCIFEROL],,,0.08,-15.8,-0.21,,
COC(=O)c1c(OC)cc2c(c1C)Oc1c(Cl)c(O)c(Cl)c(C)c1C(=O)O2 [GANGALEOIDIN],-3.3,-0.05,-21.6,,,,
O=C1c2c(O)cccc2C([C@@H]2O[C@H](CO)[C@@H](O)[C@H](O)[C@H]2O)c2cc(CO)cc(O)c21 (stereo partly drawn) [ALOIN],-54.3,-0.63,-0.73,,,,
CNc1ccccc1C(=O)N1CCc2c([nH]c3ccccc23)C1=O [RHETSININE],29.6,0.51,-31.2,,,,
CCOc1cccc(C(=O)c2ccc(O)c(O)c2O)c1,-31.4,-0.39,-37.2,,,,
COc1cc(OC)c2c(OC)c(-c3ccc4c(c3)OCO4)c(=O)oc2c1 [DERRUSNIN],,,14.8,-7.3,-0.10,,
COc1ccc(-c2oc3c(CC=C(C)C)c(O[C@@H]4O[C@H](CO)[C@@H](O)[C@H](O)[C@H]4O)cc(O)c3c(=O)c2O[C@@H]2O[C@@H](C)[C@H](O)[C@@H](O)[C@H]2O)cc1 [ICARIIN],-16.4,-0.22,-12.3,,,,
C[C@@H]1[C@H](O)[C@@H](C)/C=C/C=C/C=C/C=C/C=C/C=C/C=C/[C@H](O[C@@H]2O[C@H](C)[C@@H](O)[C@H](N)[C@@H]2O)C[C@@H]2O[C@](O)(C[C@@H](O)C[C@@H](O)[C@H](O)CC[C@@H](O)C[C@@H](O)CC(=O)O[C@H]1C)C[C@H](O)[C@H]2C(=O)O [AMPHOTERICIN B],7.1,0.11,-4.47,,,,
"Cc1ccc2c(c1)CC[C@H]1CC(=O)CC[C@]21C [13-METHYL-4,4-BISNOR-8,11,13-PODOCARPATRIEN-3-ONE]",-2,-0.03,-31.4,,,,
CC1(C)CC2C1CCC1(C)OC1CCC2(C)O (stereo not drawn) [2-HYDROXY-5 (6)EPOXY-TETRAHYDROCARYOPHYLLENE],-10.9,-0.15,46.2,,,,
COc1cc(OC)c2c(c1)O[C@H](c1ccc(OC)c(OC)c1)[C@@H](O)C2,,,17.5,-38.4,-0.47,,
"O=C(Oc1cc(O)cc2c1C[C@@H](OC(=O)c1cc(O)c(O)c(O)c1)[C@@H](c1cc(O)c(O)c(O)c1)O2)c1cc(O)c(O)c(O)c1 [EPIGALLOCATECHIN 3,5-DIGALLATE]",,,-1.19,-17.5,-0.23,,
Nc1nc(=O)c2[nH]c(=O)cnc2[nH]1 [XANTHOPTERIN],27.9,0.47,22.7,,,,
CN[C@@H]1[C@@H](O)[C@@H](O[C@@H]2[C@@H](O)[C@H](O[C@H]3O[C@H]([C@@H](C)O)[C@@H](O)[C@H](O)[C@H]3N)[C@@H](N)C[C@H]2N)OC[C@]1(C)O [GENETICIN],,,-26.1,4.9,0.07,,
Oc1ccc(/C=C/c2cc(O)cc(O)c2)cc1 [RESVERATROL],-9.6,,93.5,,-0.13,-24,
COc1cc(C)c(C(=O)Oc2cc(C)c(C(=O)O)c(O)c2C)c(OC)c1C [DIFFRACTAIC ACID],46.7,0.91,-3.8,,,,
COc1cc(C)c(C(=O)O)c(O)c1 [EVERNINIC ACID],-26.6,-0.34,52.1,,,,
C[C@]12CC[C@H]3C(=CCc4cc(O)ccc43)[C@@H]1CCC2=O [EQUILIN],,,-53.6,,-0.60,,-51.5
Cc1cc2c(C(C)C)c(O)c(O)c(C=O)c2c(O)c1-c1c(C)cc2c(C(C)C)c(O)c(O)c(C=O)c2c1O [GOSSYPOL],26.6,,21.4,,0.45,,
